The test system of one experiment is xenograft tumors. Description: Tumor volume of xenograft tumors in female nude athymic mice. The class given is in vivo, mouse. The following applies: U87-MG, A549, ZR-75-1, or 786-0 tumor cells. Here is the method: For example, treatment with one or more compounds of the invention results in a reduction in the growth or tumor volume caused by engraftment of U87-MG, A549, ZR-75-1, or 786-0 tumor cells in nude mice. The compounds of the invention may be administered orally, subcutaneously, or intravenously, or any other compound administration methods provided herein. In some cases, the compounds are administered once a week, every other day, once a day, twice a day, three times a day, four times a day or more. In some cases, 0.01 mg/kg of compound is administered, 0.05 mg/kg, 0.1 mg/kg, 0.2 mg/kg, 0.4 mg/kg, 0.5 mg/kg, 1 mg/kg, 1.5 mg/kg, 2 mg/kg, 3 mg/kg, 4 mg/kg, 5 mg/kg, 7.5 mg/kg, 10 mg/kg, 100 mg/kg or more compound is administered at a time. In some cases, a significant reduction in tumor volume may be detected within 5, 10, 15, 20, 25, or 30 days of tumor engraftment.
Mice are inoculated subcutaneously in the right flank with 0.01 to 0.5 ml of tumor cells such as those listed above (approximately 1.0×10^5 to 1.0×10^8 cells/mouse). Five to 10 days following inoculation, tumors are measured using calipers and tumor weight is calculated, for example using the animal study management software, such as Study Director V.1.6.70 (Study Log). […] Body weights are recorded when the mice are pair-matched. […]

Experiment [1] relates to HCT116 cells or SW620 cells. Nature of the experiment: Cell cycle progression, G0/G1 arrest. The class given is cell-based. The following applies: compared to an inhibitor that inhibits one or more PI3-kinases. As for the experimental part: FIG. 9A-9B depict the effects of a compound of Table 1 of the present invention on cell cycle progression in HCT116 and SW620 cells as compared to various other compounds. FIG. 9A depicts the inhibiting effect of the compound at 500 nM on cell cycle progression as compared to DMSO vehicle control and as compared to 10 uM doxorubicin. FIG. 9B depicts the effect of the indicated compounds on the population of cells residing in G0/G1 phase during culture for two different cell lines.
In some embodiments, one or more compounds of the invention including those in Table 1 may cause cell cycle arrest. […] In some cases, about 35%, 40%, 50%, 55%, 60%, 65%, 70% or more of cells treated with one or more compounds of the invention may be in the G0/G1 cell cycle stage.

The target in another experiment is T1, PI3K α (Homo sapiens, UniProt P42336).
T1 construct: purchased Upstate
Description: PI3K α kinase inhibition assay. The class given is biochemical.

The values below come from US9345706B2, “Benzoxazole kinase inhibitors and methods of use” (Intellikine LLC, priority 2008, dated 2016).

T1 sequence (P42336 whole entry): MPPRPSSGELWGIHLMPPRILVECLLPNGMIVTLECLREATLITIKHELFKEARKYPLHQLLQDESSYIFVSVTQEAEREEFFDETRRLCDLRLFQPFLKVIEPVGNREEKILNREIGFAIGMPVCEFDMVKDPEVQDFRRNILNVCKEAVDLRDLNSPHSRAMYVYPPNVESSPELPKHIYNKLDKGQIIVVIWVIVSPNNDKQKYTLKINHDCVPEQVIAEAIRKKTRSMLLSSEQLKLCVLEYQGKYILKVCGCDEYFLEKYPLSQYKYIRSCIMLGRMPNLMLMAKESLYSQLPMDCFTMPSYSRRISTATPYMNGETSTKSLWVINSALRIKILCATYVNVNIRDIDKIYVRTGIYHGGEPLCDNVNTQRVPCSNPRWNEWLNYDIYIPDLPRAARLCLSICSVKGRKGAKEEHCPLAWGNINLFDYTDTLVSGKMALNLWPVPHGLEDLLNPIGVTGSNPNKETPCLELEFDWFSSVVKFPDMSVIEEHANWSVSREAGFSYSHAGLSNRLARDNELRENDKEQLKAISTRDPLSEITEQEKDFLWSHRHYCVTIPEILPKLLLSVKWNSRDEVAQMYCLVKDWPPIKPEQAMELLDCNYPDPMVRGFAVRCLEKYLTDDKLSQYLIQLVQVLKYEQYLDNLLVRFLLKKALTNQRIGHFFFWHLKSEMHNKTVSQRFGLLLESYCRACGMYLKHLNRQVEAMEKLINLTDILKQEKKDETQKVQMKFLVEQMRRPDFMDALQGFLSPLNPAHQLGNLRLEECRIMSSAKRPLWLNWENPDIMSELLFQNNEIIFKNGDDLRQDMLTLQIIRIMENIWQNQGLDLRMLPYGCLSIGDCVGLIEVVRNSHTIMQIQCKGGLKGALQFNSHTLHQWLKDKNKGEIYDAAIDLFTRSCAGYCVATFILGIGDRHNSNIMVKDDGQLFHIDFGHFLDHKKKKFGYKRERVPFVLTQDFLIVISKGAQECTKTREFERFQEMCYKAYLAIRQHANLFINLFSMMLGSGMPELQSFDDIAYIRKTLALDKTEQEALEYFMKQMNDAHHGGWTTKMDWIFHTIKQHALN
T1 sequence (P27986 whole entry partner): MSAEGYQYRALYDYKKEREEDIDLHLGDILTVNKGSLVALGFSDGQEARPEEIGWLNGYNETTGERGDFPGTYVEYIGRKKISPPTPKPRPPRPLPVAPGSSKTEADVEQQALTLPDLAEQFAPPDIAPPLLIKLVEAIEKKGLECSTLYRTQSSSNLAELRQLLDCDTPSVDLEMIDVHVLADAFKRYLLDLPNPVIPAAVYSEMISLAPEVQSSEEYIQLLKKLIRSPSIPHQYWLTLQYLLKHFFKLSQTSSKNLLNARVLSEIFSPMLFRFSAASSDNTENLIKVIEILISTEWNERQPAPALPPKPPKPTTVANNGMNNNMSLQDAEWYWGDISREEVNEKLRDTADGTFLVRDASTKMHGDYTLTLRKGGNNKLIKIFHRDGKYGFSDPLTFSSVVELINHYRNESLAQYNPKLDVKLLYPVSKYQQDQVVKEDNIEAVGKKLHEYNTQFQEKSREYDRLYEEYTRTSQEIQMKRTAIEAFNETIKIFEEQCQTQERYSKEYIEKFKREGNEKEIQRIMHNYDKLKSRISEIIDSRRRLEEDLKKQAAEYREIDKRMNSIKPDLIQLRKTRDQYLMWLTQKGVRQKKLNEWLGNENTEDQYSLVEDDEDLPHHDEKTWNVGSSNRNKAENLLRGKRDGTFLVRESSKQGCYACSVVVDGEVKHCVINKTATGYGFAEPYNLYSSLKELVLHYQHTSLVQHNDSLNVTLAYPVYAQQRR

For `CC(C)n1nc(-c2ccc3oc(N)nc3c2)c2c(N)ncnc21` [compound 1], the “tumor volume of xenograft tumors” value in the experiment on xenograft tumors was “cause a reduction in tumor volume of xenograft tumors”. The “degree of G0/G1 arrest” value in experiment [1] is “comparable or a greater degree of G0/G1 arrest”.
One may read the IC50 as the concentration that inhibits the measured activity by half. Higher therefore signals a need for much substance. Take `COC(=O)Nc1noc2ccc(-c3nn(C(C)C)c4ncnc(N)c34)cc12` [compound 19]: the IC50 against PI3K α was above 10 µM.
The molecule `COC(=O)Nc1noc2cc(-c3nn(C(C)C)c4ncnc(N)c34)ccc12` [compound 20] displayed an IC50 against PI3K α below 10 µM.
